Measurements published in patent publication US11485720B2, “Anti-infective agents” (University of Dundee, priority 2016, dated 2022).
“And” between values parts separate entries of the source, which are not always exact repeats. Identical values can stand only once.

Legend:
[1] = system: Plasmodium falciparum strain 3D7; test: Plasmodium falciparum 3D7 in vitro growth inhibition (SYBRgreen I); type: cell-based; conditions: for EC50: Plasmodium falciparum, 3D7, read-out: pEC50 for Pf 3D7 (converted)
Experimental: Parasite Cultures and Cytotoxicity Assay Methodology for Plasmodium falciparum. […] Growth inhibition of the Plasmodium falciparum cultures was quantified in a 10-point dose response curve with a 1 in 3 dilution series from a top assay concentration of 50 μM. This 384 well plate based fluorescence assay utilises the binding of SYBRgreen I (Thermo Fisher Scientific/Invitrogen cat. no. S7585) to double stranded DNA, which greatly increases the fluorescent signal at 528 nm after excitation at 485 nm. Mefloquine was used as a drug control to monitor the quality of the assay (Z′=0.6 to 0.8, where Z′ is a measure of the discrimination between the positive and negative controls on a screen plate). Dose-response curves were determined from a minimum of 3 independent experiments. Compound bioactivity was expressed as EC50, the effective concentration of compound causing 50% parasite death.

[2] = system: Cryptosporidium parvum; test: In vitro Crytosporidium inhibition assay; type: cell-based; conditions: Cryptosporidium parvum; read-out: Cryptosporidium parvum pEC50 (converted)
Source text: Assay Method for Measurement of In Vitro Inhibition of Crytosporidium.
These experiments were run in accordance with the method of Besssoff et. al. Antimicrob. Agents Chemother. 2013, 57:1804-1814. Results from these experiments are provided in the Experimental Results hereinafter.

[3] = biological target: T1, Plasmodium falciparum lysyl t-RNA synthetase (Pf-KRS1) (Plasmodium falciparum, UniProt Q8IDJ8); test: Pf-KRS1 inhibition biochemical assay (Kinase-Glo, ATP depletion); conditions: read-out: Pf-KRS pIC50 (converted)
T1 construct: Pf KRS1-; made in house; host or cells: E. coli BL21 (DE3)
Source text: Plasmodium falciparum Lysine tRNA Synthetase (KRS1) Biochemical Assay Methodology.
Lysine tRNA Synthetase (KRS1) is an enzyme which catalyses the esterification of L-Lysine to the appropriate transfer ribonucleic acid (tRNA), to form an aminoacyl-tRNA. Once the tRNA is charged, a ribosome transfers the amino acid from the tRNA onto a growing peptide, according to the genetic code.
The substrates of this reaction are L-lysine, and adenosine triphosphate (ATP), the overall reaction is: amino acid+tRNA+ATP→aminoacyl-tRNA+AMP+PPi
In this overall reaction AMP is adenosine monophosphate and PP; is inorganic pyrophosphate. The reaction progression in a biochemical assay can be tracked by the depletion of one of the substrates, in the case of this invention, ATP. This was done using the proprietary assay kit, Kinase Glo® Assay which is a luminescent kinase assay platform suitable for monitoring kinase activities using up to 10 μm ATP which is commercially available from the Promega Corporation of Madison, Wis., USA. The Kinase-Glo® Assay was performed in a single well of a multiwell plate by adding a volume of Kinase-Glo® Reagent equal to the volume of a completed kinase reaction and measuring luminescence. The resulting luminescent signal is correlated with the amount of ATP present and is inversely correlated with the amount of kinase activity. As such by use of this assay methodology a reduction of the luminescent signal is relative to the reduction in ATP as the reaction progresses. A compound which inhibits the action of KRS will show no drop in the luminescent signal from assay controls.
Assays were performed using both Plasmodium falciparum and human KRS to assess any selectivity of various test compounds.
Test compounds were solubilized in DMSO at a top concentration of 10 mM and serially diluted 1 in 3 to achieve a range of final assay concentrations of 50 μM to 2.5 nM in 10 μl reaction volume.
KRS was diluted to a working concentration of 75 nM in assay buffer (25 mM HEPES, 25 mM KOH, 10 mM MgCl2.6H2O, 50 mM KCl), and the following ‘Master Mix’ prepared in assay buffer: 0.1 mg/ml BSA, 250 μM DTT, 200 μM Spermine, 0.05% NP-40, ATP 3 μM for Pf KRS1 (4 μM for Hs KRS1), 0.4 mg/ml tRNA from Yeast, 60 μM L-Lysine, 0.5 U/ml Pyrophosphatase.
Plates were incubated at room temperature for 5 h for Pf KRS (2.5 hrs for HsKRS), then the assay stopped by the addition of 10 μl of The Kinase-Glo® Reagent Assay was performed in a single well of a multiwell plate by adding a volume of Kinase-Glo® Reagent which is commercially available from the Promega Corporation of Madison, Wis., USA. The plates were incubated in the dark for a further 15 mins before being read for luminescence on a BMG PHERAstar® FSX plate reader which is a multi-mode reader for use in high-throughput screening available from BMG Labtech if Cary, N.C., USA. Data were analysed by calculating the percentage inhibition compared to the maximum and minimum assay controls. Concentration effect curves were fitted using nonlinear regression within ActivityBase and IC50 values were determined using standard protocols.

[4] = system: Hep G2; test: Hep G2 in-vitro cytotoxicity assay; type: cell-based; conditions: Homo sapiens, HepG2, read-out: Hs HEPG2 pEC50 (converted)
Source text: In-vitro cytotoxicity studies can be carried out using Hep G2 (Human hepatocyte carcinoma, HPACC cat. no. 85011430) used as indicators for general mammalian cell toxicity. Hep G2 in-vitro cytotoxicity can be assessed using the assay procedure as described in “Use of a human-derived liver cell line for the detection of cytoprotective, antigenotoxic and cogenotoxic agents”, Volker Mersch-Sundermann, Siegfried Knasmüller, Xin-jiang Wu, Firouz Darroudi, Fekadu Kassie. J. Tox 198 (2004) 329-340) the contents of which are incorporated herein by reference.

[5] = system: Trypanosoma cruzi; test: Trypanosoma cruzi intracellular imaging assay; type: cell-based; conditions: read-out: Trypanosoma cruzi pEC50 (converted)
Source text: Assay Method for Measurement of In Vitro Inhibition of Trypanosoma cruzi. […] These experiments were run in accordance with the method of Pena et. al., Scientific Reports 5, Article number: 8771 (2015). Results from these experiments are provided in the Experimental Results hereinafter.

T1 sequence (Q8IDJ8 entry or part of it, looked up, natural form): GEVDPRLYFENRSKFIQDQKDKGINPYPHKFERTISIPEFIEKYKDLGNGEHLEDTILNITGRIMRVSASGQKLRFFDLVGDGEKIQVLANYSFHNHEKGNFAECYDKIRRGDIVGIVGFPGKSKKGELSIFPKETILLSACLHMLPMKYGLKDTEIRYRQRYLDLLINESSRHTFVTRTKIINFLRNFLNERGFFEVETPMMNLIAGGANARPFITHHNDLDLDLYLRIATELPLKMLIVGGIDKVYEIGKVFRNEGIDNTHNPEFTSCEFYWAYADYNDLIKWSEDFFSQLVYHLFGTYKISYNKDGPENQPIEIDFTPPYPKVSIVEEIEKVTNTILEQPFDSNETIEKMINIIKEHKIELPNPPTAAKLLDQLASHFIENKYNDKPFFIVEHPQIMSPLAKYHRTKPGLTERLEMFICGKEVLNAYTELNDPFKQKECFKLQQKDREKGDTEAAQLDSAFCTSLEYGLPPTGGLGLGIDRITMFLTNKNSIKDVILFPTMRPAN

Compound	EC50 [1] [nM]	EC50 [2] [nM]	IC50 [3]	EC50 [4] [nM]	pEC50 for Pf 3D7 [1]	EC50 [5] [nM]
O=C(NCC1CCCCC1)c1cc(=O)c2ccc(O)cc2o1 [Example 4, N-(cyclohexylmethyl)-7-hydroxy-4-oxo-chromene-2-carboxamide]	1260	1580	1000 nM	50100		
O=C(NCC1CCC(F)(F)CC1)c1cc(=O)c2ccccc2o1 [Example 21, N-[(4,4-difluorocyclohexyl)methyl]-4-oxo-chromene-2-carboxamide]		7940		50100		
O=C(NCC1(O)CCCCC1)c1cc(=O)c2ccccc2o1 [Example 27, N-[(1-hydroxycyclohexyl)methyl]-4-oxo-chromene-2-carboxamide]	251	316	126 nM	50100		
O=C(NCC1(CO)CCCCC1)c1cc(=O)c2cc(F)ccc2o1 [Example 40, 6-fluoro-N-[[1-(hydroxymethyl)cyclohexyl]methyl]-4-oxo-chromene-2-carboxamide]	794	1580	251 nM	50100		
O=C(NCC1(O)CCCCC1)c1cc(=O)c2cc(F)ccc2o1 [Example 41, 6-fluoro-N-[(1-hydroxycyclohexyl)methyl]-4-oxo-chromene-2-carboxamide]	200	501	100 nM	25100		
C[C@H](NC(=O)c1cc(=O)c2cc(F)ccc2o1)C1CCCCC1 [Example 49A, (S)—N-(1-cyclohexylethyl)-6-fluoro-4-oxo-4H-chromene-2-carboxamide]	398	158	126 nM			
O=C(NCC1(O)CCCCC1)c1cc(=O)c2cc(F)cc(F)c2o1 [Example 55, 6,8-difluoro-N-[(1-hydroxycyclohexyl)methyl]-4-oxo-chromene-2-carboxamide]	398	501	200 nM	50100		
O=C(NCC1(O)CCC(F)(F)CC1)c1cc(=O)c2cc(F)cc(F)c2o1 [Example 56, N-((4,4-difluoro-1-hydroxycyclohexyl)methyl)-6,8-difluoro-4-oxo-4H-chromene-2-carboxamide]	1580	7940	316 nM			
O=C(NCC1(O)CCC(F)(F)CC1)c1cc(=O)c2cc(O)ccc2o1 [Example 57, N-[(4,4-difluoro-1-hydroxy-cyclohexyl)methyl]-6-hydroxy-4-oxo-chromene-2-carboxamide]	158	5010	126 nM			
O=C(O)CC1(CNC(=O)c2cc(=O)c3cc(F)ccc3o2)CCCCC1 [Example 57L, 2-(1-((6-fluoro-4-oxo-4H-chromene-2-carboxamido)methyl)cyclohexyl)acetic acid]	794	5010		50100		
O=C(NCC1CCCCC1)c1cc(=O)c2cccc(O)c2o1 [Example 67, N-(cyclohexylmethyl)-8-hydroxy-4-oxo-4H-chromene-2-carboxamide]	63.1	316	63.1 nM			
COc1cc2c(=O)cc(C(=O)NCC3CCCCC3)oc2cc1F [Example 71, N-(cyclohexylmethyl)-7-fluoro-6-methoxy-4-oxo-4H-chromene-2-carboxamide]	3160	3980	398 nM			
O=C(NCC1(O)CCCCC1)c1cc(=O)c2cc(Cl)cc(O)c2o1 [Example 73, 6-Chloro-8-hydroxy-N-((1-hydroxycyclohexyl)methyl)-4-oxo-4H-chromene-2-carboxamide]		39.8	50.1 nM	20000		
O=C(NCC1CCC(F)(F)CC1)c1cc(=O)c2cc(F)cc(O)c2o1 [Example 75, N-((4,4-difluorocyclohexyl)methyl)-6-fluoro-8-hydroxy-4-oxo-4H-chromene-2-carboxamide]	200	794	79.4 nM	50100		
O=C(NCC1(O)CCC(F)(F)CC1)c1cc(=O)c2cc(F)cc(O)c2o1 [Example 76A, N-((4,4-difluoro-1-hydroxycyclohexyl)methyl)-6-fluoro-8-hydroxy-4-oxo-4H-chromene-2-carboxamide]	79.4	3160	50.1 nM	50100		
O=C(NCC1(O)CC2(CCC2)C1)c1cc(=O)c2cc(F)cc(O)c2o1 [Example 76D, 6-fluoro-8-hydroxy-N-((2-hydroxyspiro[3.3]heptan-2-yl)methyl)-4-oxo-4H-chromene-2-carboxamide]	398	3980	126 nM	50100		
O=C(NCCCC1CCC1)c1cc(=O)c2cc(F)cc(O)c2o1 [Example 76G, N-(3-cyclobutylpropyl)-6-fluoro-8-hydroxy-4-oxo-4H-chromene-2-carboxamide]	1580	1260	126 nM	31600		
O=C(NCC1CCC(F)(F)CC1)c1cc(=O)c2ccc(F)c(O)c2o1 [Example 79, N-((4,4-difluorocyclohexyl)methyl)-7-fluoro-8-hydroxy-4-oxo-4H-chromene-2-carboxamide]		794	200 nM	50100		
CS(=O)(=O)Nc1cccc2c(=O)cc(C(=O)NCC3CCCCC3)oc12 [Example 84, N-(cyclohexylmethyl)-8-(methylsulfonamido)-4-oxo-4H-chromene-2-carboxamide]	316	631	126 nM	50100		
Cc1c(C(=O)NCC2CCCCC2)oc2ccc(F)cc2c1=O [Example 91, N-(cyclohexylmethyl)-6-fluoro-3-methyl-4-oxo-4H-chromene-2-carboxamide]	5010	2510	631 nM		5.2	
Nc1cc(F)cc2c(=O)cc(C(=O)NCC3(O)CCC(F)(F)CC3)oc12 [Example 93, 8-amino-N-[(4,4-difluoro-1-hydroxy-cyclohexyl)methyl]-6-fluoro-4-oxo-chromene-2-carboxamide]		501	50.1 nM and 63.1 nM	12600		
Nc1cc(F)cc2c(=O)cc(C(=O)NCC3CCC(F)(F)CC3)oc12 [Example 94, 8-amino-N-[(4,4-difluorocyclohexyl)methyl]-6-fluoro-4-oxo-4H-chromene-2-carboxamide]	50.1					50.1
